One may read the IC50 as the concentration that inhibits the measured activity by half. A low value points to higher potency.

This is an account of results in patent publication US20240124460A1, “METHODS AND COMPOSITIONS FOR TARGETED PROTEIN DEGRADATION” (Ranok Therapeutics (Hangzhou) Co. Ltd., priority 2020, published 2024).

In one assay the target is T1, HSP90α protein (Homo sapiens, UniProt P07900).
T1 construct: purchased BPS Bioscience #50298
Put plainly: HSP90α-binding FP (FITC) assay. The following applies: FP competition with FITC-geldanamycin. Here is the method:
Binding of test compounds to HSP90α protein was measured by fluorescent polarization (FP) using the HSP90α (N-terminal) Assay Kit (BPS Bioscience, #50298), following the manufacturer's instructions, except as noted. Fluorescently labeled HSP90-binding compounds, either the provided FITC-geldanamycin (5 nM final concentration) or RNK04010, a triazolone-based HSP90 binding small molecule labeled with BODIPY through a piperazine-phenyl linker (5 nM final concentration) were employed. A 2.5-fold serial dilution of each test compound ranging from 20 μM to 5.2 nM was assayed for binding to HSP90α. After the final step of adding HSP90α protein to each assay well, plates were mixed by brief shaking, incubated at 25° C. for 120 min for FITC-geldanamycin or 300 min for RNK04010, and fluorescence was measured using a PerkinElmer EnVision Plate Reader.

Assay [1] deals with U-87 MG human glioblastoma. Put plainly: U87 MG CCK-8 proliferation assay. Type of assay: cell-based. Particulars: Homo sapiens, U-87 MG, 72 h, U-87 MG cells, read-out: U87MG CCK-8. The procedure, abridged:
(§1)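 CCK-8 absorbance read-out, with inhibition expressed against DMSO-treated cells after subtracting a cell-free DMSO medium blank. Compounds tested over a 3-fold dilution series spanning 20 μM to 1.02 nM; lines grown essentially as ATCC recommends.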
On the technique in general: Tetrazolium dyes change colour on reduction, which living cells bring about.

Assay [2] concerns MV-4-11 human acute myeloid leukemia. Put plainly: MV-4-11 CCK-8 proliferation assay. Type of assay: cell-based. The following applies: Homo sapiens, MV4-11; MV-4-11 cells, 72 hr. The procedure, abridged:
as §1

Another assay concerns ERBB2. Put plainly: ERBB2 (HER2) flow cytometry protein degradation assay in BT-474 cells. Type of assay: cell-based, human. The following applies: DC50, BT-474 cells, 24 hr. The procedure, abridged:
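BT-474 cells trypsinised after compound treatment and stained with PE-conjugated anti-ERBB2 antibody, 30 min at 25° C in the dark, then fixed in 1% paraformaldehyde for flow cytometry. % inhibition = 100−(D−B)/(S−B)*100, using treated, untreated-stained and unstained cell fluorescence.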
In general terms: In flow cytometry, cells or beads pass a laser one at a time.

Take `CCOc1cc(N2CCC(C(=O)N3CCC(CN4CCN(CCOc5ccc(Nc6cc(-n7nc(C(F)(F)F)c8c7CC(C)(C)CC8=O)ccc6C(N)=O)cc5)CC4)CC3)CC2)ccc1Nc1ncc2c(n1)N(C)c1ccccc1C(=O)N2C` [Compound 130, 4-(6,6-dimethyl-4-oxo-3-(trifluoromethyl)-4,5,6,7-tetrahydro-1H-indazol-1-yl)-2-((4-(2-(4-((1-(1-(4-((5,11-dimethyl-6-oxo-6,11-dihydro-5H-benzo[e]pyrimido[5,4-b][1,4]diazepin-2-yl)amino)-3-ethoxyphenyl)piperidine-4-carbonyl)piperidin-4-yl)methyl)piperazin-1-yl)ethoxy)phenyl)amino)benzamide]: the half-maximal inhibitory concentration (IC50) on HSP90α protein was greater than 1000 nM. For the same molecule, the EC50 in assay [1] was greater than 1000 nM; in assay [2], 100 to 1000 nM.
On HSP90α protein, `CCOc1cc(N2CCC(C(=O)N3CCC(CN4CCN(C(=O)c5ccc(-n6c(O)nnc6-c6cc(C(C)C)c(O)cc6O)cc5)CC4)CC3)CC2)ccc1Nc1ncc2c(n1)N(C)c1ccccc1C(=O)N2C` [Compound 126, 2-((4-(4-(4-((4-(4-(3-(2,4-dihydroxy-5-isopropylphenyl)-5-hydroxy-4H-1,2,4-triazol-4-yl)benzoyl)piperazin-1-yl)methyl)piperidine-1-carbonyl)piperidin-1-yl)-2-ethoxyphenyl)amino)-5,11-dimethyl-5,11-dihydro-6H-benzo[e]pyrimido[5,4-b][1,4]diazepin-6-one] had an IC50 of 100 to 1000 nM. For the same molecule, the figures for the EC50 in assay [1] and in assay [2] were 100 to 1000 nM and less than 100 nM, respectively.
Take `CCOc1cc(N2CCC(C(=O)NCCOCCOCCOc3ccc(-n4c(O)nnc4-c4cc(C(C)C)c(O)cc4O)cc3)CC2)ccc1Nc1ncc2c(n1)N(C)c1ccccc1C(=O)N2C` [Compound 016, N-(2-(2-(2-(4-(3-(2,4-dihydroxy-5-isopropylphenyl)-5-hydroxy-4H-1,2,4-triazol-4-yl)phenoxy)ethoxy)ethoxy)ethyl)-1-(4-((5,11-dimethyl-6-oxo-6,11-dihydro-5H-benzo[e]pyrimido[5,4-b][1,4]diazepin-2-yl)amino)-3-ethoxyphenyl)piperidine-4-carboxamide]: the IC50 at HSP90α protein lay in the range of 100 to 1000 nM. The EC50 in assay [1] is 100 to 1000 nM; in assay [2], less than 100 nM.
Take `CCOc1cc(N2CCC(OCC(=O)N3CCN(Cc4ccc(-n5c(O)nnc5-c5cc(C(C)C)c(O)cc5O)cc4)CC3)CC2)ccc1Nc1ncc2c(n1)N(C)c1ccccc1C(=O)N2C` [Compound 001, 2-((4-(4-(2-(4-(4-(3-(2,4-dihydroxy-5-isopropylphenyl)-5-hydroxy-4H-1,2,4-triazol-4-yl)benzyl)piperazin-1-yl)-2-oxoethoxy)piperidin-1-yl)-2-ethoxyphenyl)amino)-5,11-dimethyl-5H-benzo[e]pyrimido[5,4-b][1,4]diazepin-6(11H)-one]: the IC50 on HSP90α protein is less than 100 nM. Moreover, in the assay on ERBB2, the ERBB2 degradation result is “C (DC50 > 1000 nM)”. Moreover, the values for the EC50 in assay [1] and in assay [2] were greater than 1000 nM and 100 to 1000 nM, respectively.
In the same order, the values of `CCOc1cc(N2CCC(C(=O)NCCOc3cccc(CN(C)Cc4ccc(-n5c(O)nnc5-c5cc(C(C)C)c(O)cc5O)cc4)c3)CC2)ccc1Nc1ncc2c(n1)N(C)c1ccccc1C(=O)N2C` [Compound 007, N-(2-(3-(((4-(3-(2,4-dihydroxy-5-isopropylphenyl)-5-hydroxy-4H-1,2,4-triazol-4-yl)benzyl)(methyl)amino)methyl)phenoxy)ethyl)-1-(4-((5,11-dimethyl-6-oxo-6,11-dihydro-5H-benzo[e]pyrimido[5,4-b][1,4]diazepin-2-yl)amino)-3-ethoxyphenyl)piperidine-4-carboxamide] are 100 to 1000 nM, “B (DC50 = 100-1000 nM)”, 100 to 1000 nM and less than 100 nM.
`CCOc1cc(N2CCC(C(=O)NCCOCCOCCOc3ccc(-n4c(O)nnc4-c4cc(CC)c(O)cc4O)cc3)CC2)ccc1Nc1ncc2c(n1)N(C)c1ccccc1C(=O)N2C` [Compound 017, 1-(4-((5,11-dimethyl-6-oxo-6,11-dihydro-5H-benzo[e]pyrimido[5,4-b][1,4]diazepin-2-yl)amino)-3-ethoxyphenyl)-N-(2-(2-(2-(4-(3-(5-ethyl-2,4-dihydroxyphenyl)-5-hydroxy-4H-1,2,4-triazol-4-yl)phenoxy)ethoxy)ethoxy)ethyl)piperidine-4-carboxamide] returned an IC50 at HSP90α protein of 100 to 1000 nM. Moreover, the EC50 in assay [1] is greater than 1000 nM; in assay [2], less than 100 nM.
As to `CCOc1cc(N2CCC(OCC(=O)NCCOCCN3CCN(Cc4ccc(-n5c(O)nnc5-c5cc(C(C)C)c(O)cc5O)cc4)CC3)CC2)ccc1Nc1ncc2c(n1)N(C)c1ccccc1C(=O)N2C` [Compound 002, N-(2-(2-(4-(4-(3-(2,4-dihydroxy-5-isopropylphenyl)-5-hydroxy-4H-1,2,4-triazol-4-yl)benzyl)piperazin-1-yl)ethoxy)ethyl)-2-((1-(4-((5,11-dimethyl-6-oxo-6,11-dihydro-5H-benzo[e]pyrimido[5,4-b][1,4]diazepin-2-yl)amino)-3-ethoxyphenyl)piperidin-4-yl)oxy)acetamide], on HSP90α protein, the IC50 is less than 100 nM. Further, in the assay on ERBB2, the ERBB2 degradation entry is given as “B (DC50 = 100-1000 nM)”. Also, the EC50 in assay [1] is 100 to 1000 nM; in assay [2], less than 100 nM.
As for `CCOc1cc(N2CCC(C(=O)N3CCC(N4CCN(C(=O)O[C@H]5CC[C@H](Nc6cc(-n7nc(C(F)(F)F)c8c7CC(C)(C)CC8=O)ccc6C(N)=O)CC5)CC4)CC3)CC2)ccc1Nc1ncc2c(n1)N(C)c1ccccc1C(=O)N2C` [Compound 125, (1R,4R)-4-((2-carbamoyl-5-(6,6-dimethyl-4-oxo-3-(trifluoromethyl)-4,5,6,7-tetrahydro-1H-indazol-1-yl)phenyl)amino)cyclohexyl 4-(1-(1-(4-((5,11-dimethyl-6-oxo-6,11-dihydro-5H-benzo[e]pyrimido[5,4-b][1,4]diazepin-2-yl)amino)-3-ethoxyphenyl)piperidine-4-carbonyl)piperidin-4-yl)piperazine-1-carboxylate], the IC50 at HSP90α protein was greater than 1000 nM. Moreover, the EC50 in assay [1] and in assay [2] was greater than 1000 nM in each case.
The molecule `CCOc1cc(N2CCC(C(=O)N3CCC(CN4CCC(COc5ccc(Nc6cc(-n7nc(C(F)(F)F)c8c7CC(C)(C)CC8=O)ccc6C(N)=O)cc5)CC4)CC3)CC2)ccc1Nc1ncc2c(n1)N(C)c1ccccc1C(=O)N2C` [Compound 129, 4-(6,6-dimethyl-4-oxo-3-(trifluoromethyl)-4,5,6,7-tetrahydro-1H-indazol-1-yl)-2-((4-((1-((1-(1-(4-((5,11-dimethyl-6-oxo-6,11-dihydro-5H-benzo[e]pyrimido[5,4-b][1,4]diazepin-2-yl)amino)-3-ethoxyphenyl)piperidine-4-carbonyl)piperidin-4-yl)methyl)piperidin-4-yl)methoxy)phenyl)amino)benzamide] had an IC50 at HSP90α protein of 100 to 1000 nM. The EC50 is greater than 1000 nM in assay [1] and 100 to 1000 nM in assay [2].
In turn, `CCOc1cc(N2CCC(C(=O)NCC3CCN(C(=O)C4CCN(Cc5ccc(-n6c(O)nnc6-c6cc(CC)c(O)cc6O)cc5)CC4)CC3)CC2)ccc1Nc1ncc2c(n1)N(C)c1ccccc1C(=O)N2C` [Compound 011, 1-(4-((5,11-dimethyl-6-oxo-6,11-dihydro-5H-benzo[e]pyrimido[5,4-b][1,4]diazepin-2-yl)amino)-3-ethoxyphenyl)-N-((1-(1-(4-(3-(5-ethyl-2,4-dihydroxyphenyl)-5-hydroxy-4H-1,2,4-triazol-4-yl)benzyl)piperidine-4-carbonyl)piperidin-4-yl)methyl)piperidine-4-carboxamide] showed an IC50 on HSP90α protein of 100 to 1000 nM. The EC50 in assay [1] was greater than 1000 nM; in assay [2], 100 to 1000 nM.
